This is an account of results in ChEMBL document CHEMBL5614386, “Design, synthesis, and biological evaluation of novel 1-amido-2-one-4-thio-deoxypyranose as potential antitumor agents for multiple myeloma” (Bioorg Med Chem, 2024).

Molecules are shown by their SMILES. Active and inactive are the calls of the source. The calls are words filed in the database; no cut-off is given here.

In one experiment the test system is ARP-1. Kind of experiment: Anti-proliferative activity against human ARP-1 cells assessed as inhibition cell growth at 5 uM incubated for 72 hrs by CCK-8 assay. In kind it is functional, cell-based.
Experiment [1] deals with NCI-H929. Kind of experiment: Anti-proliferative activity against human NCI-H929 cells assessed as inhibition cell growth at 5 uM incubated for 72 hrs by CCK-8 assay. In kind it is functional, cell-based.
The subject of experiment [2] is NCI-H929. Description: Anti-proliferative activity against human NCI-H929 cells assessed as inhibition cell growth at 5 uM incubated for 72 hrs by CCK-8 assay relative to control. In kind it is functional. Further details: scale not given: the % may be the effect or the level left.
Experiment [3] can be described thus: Anti-proliferative activity against human ARP-1 cells assessed as inhibition cell growth at 5 uM incubated for 72 hrs by CCK-8 assay relative to control. Also noted: scale not given: the % may be the effect or the level left. It is filed as functional.

For `CC(=O)OC[C@H]1O[C@@H](NC(=O)c2ccccc2)C(=O)CC1Sc1ccc(C)cc1` (some centres not stated), the outcome in the experiment on ARP-1 and in the experiment with NCI-H929 [1] was Active.

For the compound `COc1ccc(CSC2CC(O)[C@H](NC(=O)c3ccccc3)O[C@@H]2COC(C)=O)cc1` (some centres not stated), the Activity (with NCI-H929 [2]; in experiment [3]) was less than 20% in each case.

For `CC(=O)OC[C@H]1O[C@@H](NC(=O)c2ccc3c(c2)OCO3)C(O)CC1Sc1cc(C)cc(C)c1` (some centres not stated), the Activity (with NCI-H929 [2]; in experiment [3]) was less than 20% each time.

Regarding `COc1ccc(SC2CC(=O)[C@H](NC(=O)c3ccccc3)O[C@@H]2COC(C)=O)cc1OC` (some centres not stated), the result in the experiment on ARP-1 and with NCI-H929 [1] was Active.

Turning to `CC(=O)OC[C@H]1O[C@@H](NC(=O)c2ccc3c(c2)OCO3)C(O)CC1SCc1ccco1` (some centres not stated), the Activity (in the experiment on NCI-H929 [2]; in experiment [3]) was less than 20% in each case.

Regarding `CC(=O)OC[C@H]1O[C@@H](NC(=O)c2ccc3c(c2)OCO3)C(O)CC1SCc1ccc(Cl)cc1` (some centres not stated), the Activity (with NCI-H929 [2]; in experiment [3]) was less than 20% in each case.

On to `CC(=O)OC[C@H]1O[C@@H](NC(=O)c2ccc3c(c2)OCO3)C(O)CC1Sc1ccc(C)cc1` (some centres not stated), for which the Activity (with NCI-H929 [2]; in experiment [3]) was less than 20% in each case.

On to `CC(=O)OC[C@H]1O[C@@H](NC(=O)c2ccc3c(c2)OCO3)C(O)CC1SCc1ccc(F)cc1` (some centres not stated), for which the Activity (in the experiment on NCI-H929 [2]; in experiment [3]) was less than 20% in each case.

With `COc1ccc(SC2CC(O)[C@H](NC(=O)c3ccccc3)O[C@@H]2COC(C)=O)cc1` (some centres not stated), the Activity (with NCI-H929 [2]; in experiment [3]) was less than 20% in each case.

On to `CC(=O)OC[C@H]1O[C@@H](NC(=O)c2ccc3c(c2)OCO3)C(=O)CC1SCCCCCCO` (some centres not stated), for which the outcome in the experiment on ARP-1 and in the experiment with NCI-H929 [1] was Active.

Consider `CC(=O)OC[C@H]1O[C@@H](NC(=O)c2ccccc2)C(O)CC1Sc1ccc(C)cc1` (some centres not stated), for which the Activity (in the experiment with NCI-H929 [2]; in experiment [3]) was less than 20% in each case.

Take `CC(=O)OC[C@H]1O[C@@H](NC(=O)c2ccccc2)C(=O)CC1SCc1ccc(Cl)cc1` (some centres not stated): the result with ARP-1 and with NCI-H929 [1] was Active.

For `COc1ccccc1SC1CC(=O)[C@H](NC(=O)c2ccccc2)O[C@@H]1COC(C)=O` (some centres not stated), the result with ARP-1 and in the experiment on NCI-H929 [1] was Active.

`CC(=O)OC[C@H]1O[C@@H](NC(=O)c2ccccc2)C(O)CC1Sc1ccc(F)cc1` (some centres not stated): the Activity (in the experiment on NCI-H929 [2]; in experiment [3]) was less than 20% throughout.

Turning to `COc1ccccc1SC1CC(=O)[C@H](NC(=O)c2ccc3c(c2)OCO3)O[C@@H]1COC(C)=O` (some centres not stated), the outcome with ARP-1 and in the experiment with NCI-H929 [1] was inactive.

Consider `CC(=O)OC[C@H]1O[C@@H](NC(=O)c2ccccc2)C(O)CC1Sc1ccc(Cl)cc1` (some centres not stated), for which the Activity (with NCI-H929 [2]; in experiment [3]) was less than 20% in each case.

Regarding `CC(=O)OC[C@H]1O[C@@H](NC(=O)c2ccccc2)C(=O)CC1SCCCCCCO` (some centres not stated), the result in the experiment on ARP-1 and in the experiment with NCI-H929 [1] was Active.

As to `CC(=O)OC[C@H]1O[C@@H](NC(=O)c2ccc3c(c2)OCO3)C(=O)CC1SCCc1cnccn1` (some centres not stated), the outcome with ARP-1 and with NCI-H929 [1] was Active.

On to `CC(=O)OC[C@H]1O[C@@H](NC(=O)c2ccccc2)C(=O)CC1SCCc1cnccn1` (some centres not stated), for which the result in the experiment with ARP-1 and in the experiment with NCI-H929 [1] was Active.

In the case of `CC(=O)OC[C@H]1O[C@@H](NC(=O)c2ccc3c(c2)OCO3)C(=O)CC1SCc1ccc(F)cc1` (some centres not stated), the result in the experiment on ARP-1 and in the experiment on NCI-H929 [1] was Active.

In the case of `CNc1ccc(SC2CC(O)[C@H](NC(=O)c3ccc4c(c3)OCO4)O[C@@H]2COC(C)=O)cc1` (some centres not stated), the Activity (in the experiment with NCI-H929 [2]; in experiment [3]) was less than 20% in each case.

As for `COc1ccc(SC2CC(O)[C@H](NC(=O)c3ccc4c(c3)OCO4)O[C@@H]2COC(C)=O)cc1OC` (some centres not stated), the Activity (in the experiment on NCI-H929 [2]; in experiment [3]) was less than 20% each time.

Regarding `COc1ccc(CSC2CC(=O)[C@H](NC(=O)c3ccc4c(c3)OCO4)O[C@@H]2COC(C)=O)cc1` (some centres not stated), the result in the experiment on ARP-1 and in the experiment on NCI-H929 [1] was Active.

Regarding `CC(=O)OC[C@H]1O[C@@H](NC(=O)c2ccccc2)C(=O)CC1SCc1ccc(C(C)(C)C)cc1` (some centres not stated), the result with ARP-1 and in the experiment on NCI-H929 [1] was Active.

As for `COc1ccc(CSC2CC(=O)[C@H](NC(=O)c3ccccc3)O[C@@H]2COC(C)=O)cc1` (some centres not stated), the result with ARP-1 and in the experiment on NCI-H929 [1] was Active.

As to `CC(=O)OC[C@H]1O[C@@H](NC(=O)c2ccccc2)C(O)CC1SCc1ccc(F)cc1` (some centres not stated), the Activity (with NCI-H929 [2]; in experiment [3]) was less than 20% each time.

With `CC(=O)OC[C@H]1O[C@@H](NC(=O)c2ccccc2)C(=O)CC1SCc1ccco1` (some centres not stated), the result in the experiment with ARP-1 and with NCI-H929 [1] was Active.

As for `COC1CC(=O)[C@H](NC(=O)c2ccc3c(c2)OCO3)O[C@@H]1COC(C)=O` (some centres not stated), the outcome with ARP-1 and in the experiment on NCI-H929 [1] was inactive.

On to `CNc1ccc(SC2CC(=O)[C@H](NC(=O)c3ccc4c(c3)OCO4)O[C@@H]2COC(C)=O)cc1` (some centres not stated), for which the result in the experiment with ARP-1 and in the experiment on NCI-H929 [1] was Active.

For the compound `CC(=O)OC[C@H]1O[C@@H](NC(=O)c2ccc3c(c2)OCO3)C(=O)CC1SC1CCCC1` (some centres not stated), the result with ARP-1 and in the experiment with NCI-H929 [1] was inactive.

Consider `CC(=O)OC[C@H]1O[C@@H](NC(=O)c2ccccc2)C(=O)CC1Sc1ccc(Br)cc1` (some centres not stated), for which the outcome in the experiment on ARP-1 and in the experiment on NCI-H929 [1] was Active.

`COc1ccc(SC2CC(=O)[C@H](NC(=O)c3ccco3)O[C@@H]2COC(C)=O)cc1` (some centres not stated): the outcome with ARP-1 and with NCI-H929 [1] was Active.

`CC(=O)OC[C@H]1O[C@@H](NC(=O)c2ccccc2)C(=O)CC1SCc1ccc(F)cc1` (some centres not stated): the result in the experiment with ARP-1 and in the experiment with NCI-H929 [1] was Active.

`CC(=O)OC[C@H]1O[C@@H](NC(=O)c2ccc3c(c2)OCO3)C(=O)CC1SCc1ccc(Cl)cc1` (some centres not stated): the result with ARP-1 and with NCI-H929 [1] was Active.

`CC(=O)OC[C@H]1O[C@@H](NC(=O)c2ccc3c(c2)OCO3)C(=O)CC1SCCNC(=O)OC(C)(C)C` (some centres not stated): the result in the experiment on ARP-1 and in the experiment with NCI-H929 [1] was Active.

Regarding `COc1ccc(SC2CC(O)[C@H](NC(=O)c3ccc4c(c3)OCO4)O[C@@H]2COC(C)=O)cc1` (some centres not stated), the Activity (with NCI-H929 [2]; in experiment [3]) was less than 20% throughout.

In the case of `CC(=O)OC[C@H]1O[C@@H](NC(=O)c2ccc3c(c2)OCO3)C(=O)CC1SCc1ccc(C(C)(C)C)cc1` (some centres not stated), the result in the experiment with ARP-1 and in the experiment on NCI-H929 [1] was Active.

Turning to `COc1ccc(SC2CC(=O)[C@H](NC(=O)c3ccccc3)O[C@@H]2COC(C)=O)cc1` (some centres not stated), the result in the experiment with ARP-1 and in the experiment on NCI-H929 [1] was Active.

In the case of `CC(=O)OC[C@H]1O[C@@H](NC(=O)c2ccccc2)C(=O)CC1Sc1ccc(F)cc1` (some centres not stated), the outcome with ARP-1 and in the experiment with NCI-H929 [1] was Active.

For `CC(=O)OC[C@H]1O[C@@H](NC(=O)c2ccccc2)C(=O)CC1SCCNC(=O)OC(C)(C)C` (some centres not stated), the result with ARP-1 and with NCI-H929 [1] was Active.

Take `CC(=O)OC[C@H]1O[C@@H](NC(=O)c2ccccc2)C(O)CC1Sc1ccc(Br)cc1` (some centres not stated): the Activity (in the experiment on NCI-H929 [2]; in experiment [3]) was less than 20% each time.
